Test results taken from patent US20160354781A1, “MICROFLUIDIC PLATE FOR SAMPLE PROCESSING” (National Taiwan University, priority 2015, published 2016).
In brackets after ≈: the same amount, converted by molar mass.

Tests used:
MDA-MB-231 cells [1] = assay: Anticancer drug screening in the Micro-Gap Plate (MGP), viability by tri-fluorescent staining; type: cell-based; conditions: Homo sapiens, 24 hour drug treatment, viability normalized against untreated cells, read-out: IC50 (concentration yielding a 50% decrease in normalized percentage cell viability)
Procedure: (§1) The anticancer drug screening of cell lines was conducted with MGP and on 96-well plates as control. Two typical breast cancer lines, MCF-7 (ATCC, HTB-22) and MDA-MB-231 (ATCC, HTB-26) were used. The reason to choose the two types of cancer cell lines was that MCF-7 stood for typical luminal type cancer cells while MDA-MB-231 stood for normal-like typically. By using the two cell lines in drug response assay on the microfluidic device, we could examine whether MGP was workable to both the two types of cancer cells since primary samples may have diversely cancer cell types. Anticancer drug screening using cell lines could confirm the feasibility of applying MGP to individualized chemosensitivity assay on primary patient samples. In addition, cell lines on MGP could help optimize the operation of drug response assay beforehand, which would reduce the difficulties when dealing with primary samples. Moreover, the method of viability assessment could be examined on MGP using cell lines since fluorescent images was one of most important factors to determine the viability of cancer cells after drug treatment. […]
Primary cells were suspended (16.7 cells/0.1 μL) in culture medium (the formula of culture medium is stated in the previous section). […] The volume of cell suspension in each unit was determined on the basis of the final density of cell suspension as stated in previous section. […]

MDA-MB-231 cells [2] = assay: Anticancer drug screening in 96-well plates (control), MTT assay; type: cell-based; conditions: Homo sapiens, 96-well control, 24 hour drug treatment, read-out: IC50 (concentration yielding a 50% decrease in normalized percentage cell viability)
Procedure: as §1, with “samples.” for “samples. Moreover, the method of viability assessment could be examined on MGP using cell lines since fluorescent images was one of most important factors to determine the viability of cancer cells after drug treatment.”
Anticancer drug screening was also conducted using conventional 96-well plates as controls. […] The quantity of cells in single well was determined to coordinate the same cell-to-substrate ratio as in MGP (1000 cells/1.766 mm2). […] Finally, a plate reader (MQX 200, BioTek) was used to determine the absorbance of the DMSO at 570 nm, which was used to determine the number of living cells. […]

With `CC(=O)O[C@@]12CO[C@@H]1C[C@H](O)[C@@]1(C)C(=O)[C@H](O)C3=C(C)[C@@H](OC(=O)[C@H](O)[C@@H](NC(=O)OC(C)(C)C)c4ccccc4)C[C@@](O)([C@@H](OC(=O)c4ccccc4)[C@H]21)C3(C)C` [docetaxel] the IC50 (MDA-MB-231 cells [1]) was 23.4 µg/mL (≈ 29 µM) and the IC50 (MDA-MB-231 cells [2]) was 25.4 µg/mL (≈ 31.4 µM).
